Data from article PMC11922054 (Science Advances, 2025).
Ends that are not written are not given here.

Legend:
S. cohnii L5 [1] = test: MIC, broth microdilution; assay type: cell-based, Staphylococcus cohnii; conditions: for MICs of derivatives: strain not named in the sentence (table S6: S. cohnii L5 and E. coli)
[2] = tested on: sheep red blood cells (RBCs); test: Hemolytic activity; assay type: cell-based; conditions: 0 to 512 μM, 37°C, 1 hour
HEp-2 cells = test: Cytotoxicity, WST-1 assay; assay type: cell-based, human; conditions: up to 512 μM, 24 hours
A549 cells = test: Cytotoxicity, WST-1 assay; assay type: cell-based; conditions: up to 512 μM, 24 hours
Vero cells = test: Cytotoxicity, WST-1 assay; assay type: cell-based, African green monkey; conditions: up to 512 μM, 24 hours
H9c2 cells = test: Cytotoxicity, WST-1 assay; assay type: cell-based, rat; conditions: up to 512 μM, 24 hours
BALB/c mice = test: In vivo toxicity experiments; parameters: species or system mouse; conditions: after 5 days; intraperitoneal, highest dose 150 mg/kg; n = 5
pH stability = assay type: physicochemical; conditions: pH 2 to 12 for 1 and 2 hours, 37°C; read-out activity on S. cohnii L5
S. cohnii L5 [3] = test: Mouse skin wound infection model; assay type: in vivo; conditions: 10 days; NCBP1 8 mg/kg

APWLRVALCPG [NCBP1a]
MICs of derivatives (S. cohnii L5 [1]): > 512 µM

KPWLAVALCPG [NCBP1b]
MICs of derivatives (S. cohnii L5 [1]): > 512 µM

KPWLRVALCPG [NCBP1]
MIC (S. cohnii L5 [1]; S. cohnii L5, broth microdilution, 18 h, 37°C): 16 µM | hemolytic activity [2]: no noticeable hemolytic activity | toxicity toward cells (HEp-2 cells): negligible toxicity | toxicity toward cells (A549 cells): negligible toxicity | toxicity toward cells (Vero cells): negligible toxicity | toxicity toward cells (H9c2 cells): negligible toxicity | survival rate of mice (BALB/c mice): 100% | pH stability (pH stability): resistant to a wide range of pH values | growth of the mice, body weight (S. cohnii L5 [3]): did not affect the normal growth
